One assay concerns the target FGFR1 (human) (UniProt P11362). To be noted: compound 10.0 µM.
A further assay concerns the target PIM1 (human) (UniProt P11309). Particulars: compound 10.0 µM.
Another assay has as its system PRKACA (mouse). Particulars: compound 10.0 µM; accession and sequence are those of the human protein.
For a further assay, the target named is AKT1 (human) (UniProt P31749). Particulars: compound 10.0 µM.
A further assay has as its target PRKAA2 (human) (UniProt P54646). Particulars: compound 10.0 µM.
In a further assay the target is PRKAA1 (human) (UniProt Q13131). To be noted: compound 10.0 µM.
Sequence of PRKAA1 (human) (Q13131 whole entry, looked up): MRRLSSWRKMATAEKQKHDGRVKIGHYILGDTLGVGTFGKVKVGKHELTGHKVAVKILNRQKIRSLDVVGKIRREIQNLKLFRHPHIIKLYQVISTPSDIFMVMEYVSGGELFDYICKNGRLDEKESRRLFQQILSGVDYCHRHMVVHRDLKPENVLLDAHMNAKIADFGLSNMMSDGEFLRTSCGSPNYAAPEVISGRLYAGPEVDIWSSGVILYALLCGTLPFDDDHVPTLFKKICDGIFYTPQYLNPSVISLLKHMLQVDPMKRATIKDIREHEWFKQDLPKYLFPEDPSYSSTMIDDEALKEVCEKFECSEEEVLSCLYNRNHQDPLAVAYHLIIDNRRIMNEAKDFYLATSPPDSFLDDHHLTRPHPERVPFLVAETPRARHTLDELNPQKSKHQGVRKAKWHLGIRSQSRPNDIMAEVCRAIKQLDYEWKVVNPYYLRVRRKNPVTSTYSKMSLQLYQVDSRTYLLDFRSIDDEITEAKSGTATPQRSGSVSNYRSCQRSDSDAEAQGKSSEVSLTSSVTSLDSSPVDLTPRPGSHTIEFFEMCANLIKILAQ

One may read the inhibition as the percentage by which the read-out fell short of the control. The low end stands for a weak effect, the high end for a strong effect.

Sequence of FGFR1 (human) (P11362 whole entry, looked up): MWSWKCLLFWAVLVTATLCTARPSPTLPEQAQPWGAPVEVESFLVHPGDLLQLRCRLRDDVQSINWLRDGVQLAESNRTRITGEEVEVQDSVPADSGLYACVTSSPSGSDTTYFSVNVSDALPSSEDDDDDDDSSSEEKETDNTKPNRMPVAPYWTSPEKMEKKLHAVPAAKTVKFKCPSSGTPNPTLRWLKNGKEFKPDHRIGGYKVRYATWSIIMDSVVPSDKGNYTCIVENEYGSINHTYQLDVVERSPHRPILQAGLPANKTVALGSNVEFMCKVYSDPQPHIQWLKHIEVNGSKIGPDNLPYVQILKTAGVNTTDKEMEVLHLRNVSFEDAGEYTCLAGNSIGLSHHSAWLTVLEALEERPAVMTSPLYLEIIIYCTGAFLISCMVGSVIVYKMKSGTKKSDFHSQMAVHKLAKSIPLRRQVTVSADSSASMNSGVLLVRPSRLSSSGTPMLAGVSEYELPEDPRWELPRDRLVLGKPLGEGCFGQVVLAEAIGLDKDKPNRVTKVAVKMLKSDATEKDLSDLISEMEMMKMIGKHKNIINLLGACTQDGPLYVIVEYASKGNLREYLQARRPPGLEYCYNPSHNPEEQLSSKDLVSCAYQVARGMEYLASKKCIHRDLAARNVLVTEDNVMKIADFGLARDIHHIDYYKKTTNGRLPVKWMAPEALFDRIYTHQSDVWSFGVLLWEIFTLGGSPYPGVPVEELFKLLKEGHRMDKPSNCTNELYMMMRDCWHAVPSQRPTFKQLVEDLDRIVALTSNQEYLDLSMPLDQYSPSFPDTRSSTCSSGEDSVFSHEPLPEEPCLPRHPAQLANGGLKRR
Sequence of AKT1 (human) (P31749 whole entry, looked up): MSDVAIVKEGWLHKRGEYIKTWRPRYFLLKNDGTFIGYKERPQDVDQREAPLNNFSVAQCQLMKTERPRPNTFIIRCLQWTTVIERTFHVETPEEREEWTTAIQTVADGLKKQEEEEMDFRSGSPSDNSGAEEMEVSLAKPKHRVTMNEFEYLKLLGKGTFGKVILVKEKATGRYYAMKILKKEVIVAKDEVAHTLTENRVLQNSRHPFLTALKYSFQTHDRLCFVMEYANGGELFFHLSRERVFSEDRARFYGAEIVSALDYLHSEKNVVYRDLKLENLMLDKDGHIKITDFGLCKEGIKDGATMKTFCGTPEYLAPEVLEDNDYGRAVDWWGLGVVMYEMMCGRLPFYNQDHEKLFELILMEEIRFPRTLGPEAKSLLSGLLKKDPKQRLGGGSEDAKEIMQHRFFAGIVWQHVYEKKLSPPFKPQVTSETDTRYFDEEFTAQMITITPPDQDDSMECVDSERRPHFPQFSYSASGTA
Sequence of PIM1 (human) (P11309 whole entry, looked up): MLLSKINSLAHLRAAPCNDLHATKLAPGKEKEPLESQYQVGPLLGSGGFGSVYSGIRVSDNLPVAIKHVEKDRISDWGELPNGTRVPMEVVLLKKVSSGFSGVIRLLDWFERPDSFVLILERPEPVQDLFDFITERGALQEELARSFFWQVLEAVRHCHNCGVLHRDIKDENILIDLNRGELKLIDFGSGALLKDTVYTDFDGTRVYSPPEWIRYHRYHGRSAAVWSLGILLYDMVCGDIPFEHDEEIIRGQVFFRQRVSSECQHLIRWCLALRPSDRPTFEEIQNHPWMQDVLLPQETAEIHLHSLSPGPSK
Sequence of PRKAA2 (human) (P54646 whole entry, looked up): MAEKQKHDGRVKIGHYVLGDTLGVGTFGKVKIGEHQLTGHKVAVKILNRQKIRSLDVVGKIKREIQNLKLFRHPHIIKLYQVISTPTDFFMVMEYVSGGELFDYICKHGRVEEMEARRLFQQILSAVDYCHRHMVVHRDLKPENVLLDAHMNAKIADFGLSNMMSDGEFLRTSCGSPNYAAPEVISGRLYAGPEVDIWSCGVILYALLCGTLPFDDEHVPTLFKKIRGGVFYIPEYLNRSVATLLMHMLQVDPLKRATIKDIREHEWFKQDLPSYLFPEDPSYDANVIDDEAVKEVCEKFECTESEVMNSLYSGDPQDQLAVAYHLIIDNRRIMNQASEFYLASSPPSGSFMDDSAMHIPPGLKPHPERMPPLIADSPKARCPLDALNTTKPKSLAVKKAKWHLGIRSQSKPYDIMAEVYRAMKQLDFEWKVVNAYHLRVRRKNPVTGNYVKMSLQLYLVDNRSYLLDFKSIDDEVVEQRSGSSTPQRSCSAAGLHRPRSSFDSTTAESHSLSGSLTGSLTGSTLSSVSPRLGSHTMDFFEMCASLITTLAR

For the molecule `Cc1cc2nc3c(=O)[nH]c(=O)nc-3n(C)c2cc1C=O`, the inhibition against FGFR1 (human) was 22%; on PIM1 (human), 23%; in the assay with PRKACA (mouse), 11%; against AKT1 (human) it was 24%; against PRKAA2 (human) it was 0%; against PRKAA1 (human) it was 0%.

In the case of `Cn1cc(C2=C(c3ccc(Cl)cc3Cl)C(=O)NC2=O)c2ccccc21`, the inhibition against FGFR1 (human) is 12%; against PIM1 (human) it was 32%; in the assay with PRKACA (mouse), 5%; on AKT1 (human) it was 3%; on PRKAA2 (human), 5%; at PRKAA1 (human) it was 0%.

On to `O=c1[nH]nc(Sc2ncc([N+](=O)[O-])s2)n1-c1ccc2c(c1)OCCO2`, for which the inhibition against FGFR1 (human) was 4%; against PIM1 (human) it was 0%; in the assay with PRKACA (mouse), 5%; against AKT1 (human), 0%; at PRKAA2 (human) it was 0%; against PRKAA1 (human) it was 2%.

`O=C(c1ccc(Nc2nccc(-c3cc4ccccc4s3)n2)cc1)N1CCC(N2CCCC2)CC1`: the inhibition at FGFR1 (human) is 30%; on PIM1 (human), 22%; with PRKACA (mouse), 12%; at AKT1 (human), 0%; against PRKAA2 (human), 75%; on PRKAA1 (human) it was 63%.

On to `Brc1c(Br)c(Br)c2[nH]nnc2c1Br`, for which the inhibition on FGFR1 (human) stood at 4%; against PIM1 (human) it was 0%; with PRKACA (mouse), 0%; against AKT1 (human), 0%; against PRKAA2 (human) it was 0%; against PRKAA1 (human), 0%.

As for `COc1ccc(C(=O)Nc2sc3c(c2C(N)=O)CCCC3)cc1OC`, the inhibition against FGFR1 (human) is 9%; at PIM1 (human) it was 0%; in the assay with PRKACA (mouse), 12%; against AKT1 (human) it was 0%; against PRKAA2 (human) it was 0%; against PRKAA1 (human), 9%.

For the molecule `Cc1cc(I)ccc1Nc1c(C(=O)NOCC2CC2)cc(F)c(F)c1F`, the inhibition amounted to 3% against FGFR1 (human); 0% against PIM1 (human); 0% in the assay with PRKACA (mouse); 0% at AKT1 (human); 0% on PRKAA2 (human); 0% at PRKAA1 (human).

As for `Cc1ccc(NC(=O)c2cccc(N(C)C)c2)cc1NC(=O)c1ccc(O)cc1`, the inhibition on FGFR1 (human) was found to be 0%; against PIM1 (human), 2%; in the assay on PRKACA (mouse) it was 7%; against AKT1 (human), 0%; against PRKAA2 (human), 0%; on PRKAA1 (human), 0%.

For `Nc1ncnc2[nH]nc(Nc3ccc(F)cc3)c12`, the inhibition against FGFR1 (human) was 11%; against PIM1 (human) it was 28%; in the assay on PRKACA (mouse), 9%; at AKT1 (human), 3%; on PRKAA2 (human), 0%; on PRKAA1 (human) it was 0%.

Take `Oc1ccc(-c2nc(-c3ccc(F)cc3)c(-c3ccncc3)[nH]2)cc1`: the inhibition came to 0% at FGFR1 (human); 9% against PIM1 (human); 11% in the assay on PRKACA (mouse); 5% against AKT1 (human); 0% against PRKAA2 (human); 0% at PRKAA1 (human).

As for `CC(C)N(CCC(=O)c1ccc2ccccc2c1)Cc1ccccc1`, the inhibition amounted to 0% on FGFR1 (human); 0% at PIM1 (human); 1% in the assay on PRKACA (mouse); 0% against AKT1 (human); 0% against PRKAA2 (human); 0% against PRKAA1 (human).

`C=CC(=O)c1ccc2ccccc2c1`: the inhibition at FGFR1 (human), at PIM1 (human), with PRKACA (mouse), on AKT1 (human), at PRKAA2 (human) and against PRKAA1 (human) was 0% each time.

Regarding `COc1cc2nccc(Oc3ccc(NC(=O)Nc4ccc(F)cc4F)c(F)c3)c2cc1OC`, the inhibition worked out at 68% on FGFR1 (human); 12% against PIM1 (human); 16% in the assay on PRKACA (mouse); 6% against AKT1 (human); 0% on PRKAA2 (human); 0% on PRKAA1 (human).

In the case of `c1ccc(-c2n[nH]cc2-c2ccnc3ccccc23)nc1`, the inhibition was determined as 9% against FGFR1 (human); 11% against PIM1 (human); 1% in the assay on PRKACA (mouse); 0% at AKT1 (human); 0% at PRKAA2 (human); 0% against PRKAA1 (human).

On to `O=C1NC(=O)C(c2ccccc2[N+](=O)[O-])=C1Nc1ccc(O)c(Cl)c1`, for which the inhibition against FGFR1 (human) worked out at 9%; at PIM1 (human), 0%; with PRKACA (mouse), 0%; at AKT1 (human), 0%; against PRKAA2 (human), 13%; on PRKAA1 (human), 2%.

As for `N#C/C(=C\c1ccc(O)c(O)c1)C(=O)NCc1ccccc1`, the inhibition on FGFR1 (human) was 0%; at PIM1 (human), 0%; with PRKACA (mouse) it was 3%; against AKT1 (human), 0%; against PRKAA2 (human), 0%; against PRKAA1 (human), 0%.

As for `N#CC(=C(\N)Sc1ccccc1N)/C(C#N)=C(/N)Sc1ccccc1N`, the inhibition on FGFR1 (human), against PIM1 (human), with PRKACA (mouse), against AKT1 (human), on PRKAA2 (human) and against PRKAA1 (human) was 0% throughout.

Regarding `CC1=C(O)C(=O)[C@@H]2OC2C1=O` (some centres undefined), the inhibition on FGFR1 (human) is 3%; at PIM1 (human), 5%; with PRKACA (mouse) it was 0%; at AKT1 (human), 0%; on PRKAA2 (human) it was 0%; at PRKAA1 (human) it was 0%.

With `Cn1cc(/C=C2/C(=O)Nc3cccnc32)c2ccccc21`, the inhibition is 26% on FGFR1 (human); 0% at PIM1 (human); 0% with PRKACA (mouse); 0% against AKT1 (human); 22% at PRKAA2 (human); 32% against PRKAA1 (human).

Take `Cc1[nH]c(/C=C2\C(=O)Nc3ccc(S(=O)(=O)Cc4c(Cl)cccc4Cl)cc32)c(C)c1C(=O)N1CCC[C@@H]1CN1CCCC1`: the inhibition against FGFR1 (human) was found to be 23%; against PIM1 (human), 0%; in the assay on PRKACA (mouse) it was 1%; against AKT1 (human), 8%; against PRKAA2 (human), 62%; at PRKAA1 (human) it was 59%.

`C/C(O)=C(\C#N)C(=O)Nc1cc(Br)ccc1Br`: the inhibition at FGFR1 (human) came to 8%; at PIM1 (human), 23%; in the assay with PRKACA (mouse), 7%; against AKT1 (human), 0%; at PRKAA2 (human), 0%; against PRKAA1 (human), 0%.

On to `NC(=O)c1sc(-c2ccsc2)cc1N`, for which the inhibition on FGFR1 (human) was 0%; at PIM1 (human), 0%; in the assay on PRKACA (mouse), 0%; against AKT1 (human), 0%; on PRKAA2 (human) it was 0%; at PRKAA1 (human), 1%.

As to `CC[C@@H](CO)Nc1nc(NCc2ccccc2)c2ncn(C(C)C)c2n1`, the inhibition at FGFR1 (human) turned out to be 5%; on PIM1 (human) it was 0%; in the assay on PRKACA (mouse), 0%; against AKT1 (human), 0%; against PRKAA2 (human), 12%; against PRKAA1 (human), 0%.

For `COc1cc2ncnc(Nc3ccc(Cl)cc3F)c2cc1OC`, the inhibition against FGFR1 (human) is 7%; on PIM1 (human) it was 0%; in the assay on PRKACA (mouse), 2%; at AKT1 (human) it was 0%; at PRKAA2 (human), 8%; against PRKAA1 (human), 2%.

With `O=S(=O)(c1cccc2cnccc12)N1CCCNCC1`, the inhibition is 4% against FGFR1 (human); 4% against PIM1 (human); 0% on AKT1 (human); 0% at PRKAA2 (human); 0% against PRKAA1 (human).

For the molecule `CC(C)[C@H](CO)Nc1nc(Nc2cccc(Cl)c2)c2ncn(C(C)C)c2n1`, the inhibition came out at 28% at FGFR1 (human); 0% at PIM1 (human); 7% in the assay on PRKACA (mouse); 0% on AKT1 (human); 0% against PRKAA2 (human); 5% against PRKAA1 (human).

As for `CCN(CC)CCCCN1c2ccccc2Oc2ccc(Cl)cc21`, the inhibition at FGFR1 (human), in the assay on PRKACA (mouse), against AKT1 (human), at PRKAA2 (human) and against PRKAA1 (human) was 0% in each case.

For `O=S(=O)(NCCNC/C=C/c1ccc(Br)cc1)c1cccc2cnccc12`, the inhibition stood at 14% against FGFR1 (human); 0% on PIM1 (human); 21% against AKT1 (human); 22% at PRKAA2 (human); 17% on PRKAA1 (human).

On to `O=S(=O)(c1cccc2c(O)nccc12)N1CCCNCC1`, for which the inhibition on PIM1 (human) came out at 19%; in the assay on PRKACA (mouse), 19%; on AKT1 (human), 0%; against PRKAA2 (human) it was 0%; against PRKAA1 (human) it was 0%.

On to `CN(C)CCCn1cc(C2=C(c3c[nH]c4ccccc34)C(=O)NC2=O)c2ccccc21`, for which the inhibition was determined as 50% at FGFR1 (human); 26% in the assay on PRKACA (mouse); 5% against AKT1 (human); 20% at PRKAA2 (human); 11% at PRKAA1 (human).

In the case of `CC(C)[C@H](CO)Nc1nc(Nc2cc(N)cc(Cl)c2)c2ncn(C(C)C)c2n1`, the inhibition against PIM1 (human) turned out to be 6%; with PRKACA (mouse) it was 13%; at AKT1 (human), 0%; on PRKAA2 (human), 3%; against PRKAA1 (human), 5%.

As to `CO[C@@H]1[C@H](N(C)C(=O)c2ccccc2)C[C@H]2O[C@]1(C)n1c3ccccc3c3c4c(c5c6ccccc6n2c5c31)C(=O)NC4`, the inhibition at PIM1 (human) was determined as 73%; in the assay on PRKACA (mouse), 63%; against AKT1 (human), 55%; on PRKAA1 (human), 64%.

These data come from the kinase profiling compilation of Christmann-Franck et al. (2016).
